Data reported in PubChem BioAssay (NCI).
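GI50 = concentration required for 50% inhibition of growth. TGI marks complete inhibition of growth.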

How the values were obtained:
Test in all cases: inhibition of tumour cell growth, NCI panel, 384-well format
[1] = tested on: UO-31 renal
[2] = tested on: 786-0 renal
[3] = tested on: COLO 205 colon
[4] = tested on: OVCAR-8 ovarian
[5] = tested on: CAKI-1 renal
[6] = tested on: HCT-116 colon
[7] = tested on: SF-268 CNS
[8] = tested on: TK-10 renal
[9] = tested on: IGROV1 ovarian
[10] = tested on: HOP-62 NSCLC
[11] = tested on: KM12 colon
[12] = tested on: M14 melanoma
[13] = tested on: SNB-75 CNS
[14] = tested on: LOX IMVI melanoma
[15] = tested on: HOP-92 NSCLC
[16] = tested on: BT-549 breast
[17] = tested on: CCRF-CEM leukemia
[18] = tested on: A549 NSCLC
[19] = tested on: OVCAR-3 ovarian
[20] = tested on: SF-295 CNS
[21] = tested on: DU-145 prostate
[22] = tested on: ACHN renal
[23] = tested on: MCF7 breast
[24] = tested on: HCC-2998 colon
[25] = tested on: RPMI-8226 leukemia
[26] = tested on: MOLT-4 leukemia
[27] = tested on: HL-60(TB) leukemia
[28] = tested on: NCI/ADR-RES ovarian
[29] = tested on: MDA-MB-468 breast
[30] = tested on: EKVX NSCLC
[31] = tested on: HCT-15 colon
[32] = tested on: NCI-H460 NSCLC
[33] = tested on: PC-3 prostate
[34] = tested on: OVCAR-5 ovarian
[35] = tested on: UACC-62 melanoma
[36] = tested on: NCI-H226 lung
[37] = tested on: HT29 colon
[38] = tested on: SW-620 colon
[39] = tested on: OVCAR-4 ovarian
[40] = tested on: U251 glioblastoma
[41] = tested on: A498 renal
[42] = tested on: NCI-H522 lung
[43] = tested on: T-47D breast
[44] = tested on: SK-OV-3 ovarian
[45] = tested on: K-562 leukemia
[46] = tested on: HS 578T breast
[47] = tested on: MALME-3M melanoma
[48] = tested on: RXF 393 renal
[49] = tested on: SK-MEL-5 melanoma
[50] = tested on: NCI-H322M lung
[51] = tested on: MDA-MB-231 breast
[52] = tested on: NCI-H23 lung
[53] = tested on: SN12C renal
[54] = tested on: SNB-19 CNS
[55] = tested on: SF-539 CNS
[56] = tested on: MDA-MB-435 melanoma
[57] = tested on: SK-MEL-28 melanoma

SMILES: CCNCCS(=O)(=O)NC[C@@]1(c2ccccc2)SC(NC(=O)C(C)(C)C)=NN1C(=O)C(C)(C)C
- GI50 [1]: 63.3 µM
- TGI [1]: > 100 µM
- GI50 [2]: < 0.01 µM
- TGI [2]: 28.6 µM
- GI50 [3]: < 10 nM
- TGI [3]: < 0.01 µM
- GI50 [4]: < 0.01 µM
- TGI [4]: > 100 µM
- GI50 [5]: 42.7 nM
- TGI [5]: > 100 µM
- GI50 [6]: < 0.01 µM
- TGI [6]: > 100 µM
- GI50 [7]: < 0.01 µM
- TGI [7]: < 0.01 µM
- GI50 [8]: 26.4 µM
- TGI [8]: > 100 µM
- GI50 [9]: < 0.01 µM
- TGI [9]: > 100 µM
- GI50 [10]: < 0.01 µM
- TGI [10]: 75.6 µM
- GI50 [11]: < 0.01 µM
- TGI [11]: > 100 µM
- GI50 [12]: < 10 nM
- TGI [12]: < 10 nM
- GI50 [13]: < 0.01 µM
- TGI [13]: 48.7 µM
- GI50 [14]: < 10 nM
- TGI [14]: 22.4 µM
- GI50 [15]: < 0.01 µM
- TGI [15]: 62 µM
- GI50 [16]: < 0.01 µM
- TGI [16]: 58.9 µM
- GI50 [17]: < 10 nM
- TGI [17]: < 0.01 µM
- GI50 [18]: < 0.01 µM
- TGI [18]: > 100 µM
- GI50 [19]: < 0.01 µM
- TGI [19]: < 0.01 µM
- GI50 [20]: 0.0177 µM
- TGI [20]: > 100 µM
- GI50 [21]: < 0.01 µM
- TGI [21]: > 100 µM
- GI50 [22]: 52.6 µM
- TGI [22]: > 100 µM
- GI50 [23]: < 0.01 µM
- TGI [23]: 42.7 µM
- GI50 [24]: < 0.01 µM
- TGI [24]: 24.6 µM
- GI50 [25]: < 0.01 µM
- TGI [25]: < 0.01 µM
- GI50 [26]: < 0.01 µM
- TGI [26]: < 0.01 µM
- GI50 [27]: < 0.01 µM
- TGI [27]: < 0.01 µM
- GI50 [28]: 3.42 µM
- TGI [28]: > 100 µM
- GI50 [29]: < 0.01 µM
- TGI [29]: < 0.01 µM
- GI50 [30]: < 0.01 µM
- TGI [30]: > 100 µM
- GI50 [31]: 0.108 µM
- TGI [31]: > 100 µM
- GI50 [32]: < 0.01 µM
- TGI [32]: < 0.01 µM
- GI50 [33]: < 0.01 µM
- TGI [33]: > 100 µM
- GI50 [34]: < 0.01 µM
- TGI [34]: > 100 µM
- GI50 [35]: < 10 nM
- TGI [35]: > 100 µM
- GI50 [36]: 74.6 µM
- TGI [36]: > 100 µM
- GI50 [37]: < 10 nM
- TGI [37]: < 0.01 µM
- GI50 [38]: < 0.01 µM
- TGI [38]: 62.6 µM
- GI50 [39]: 29.5 µM
- TGI [39]: > 100 µM
- GI50 [40]: < 0.01 µM
- TGI [40]: > 100 µM
- GI50 [41]: < 0.01 µM
- TGI [41]: > 100 µM

SMILES: Cn1ccc(S(=O)(=O)N2CCC[C@H](Nc3nccc(-c4c(-c5cccc(O)c5)nc5occn45)n3)C2)n1
- GI50 [1]: 1.64 µM
- TGI [1]: 22 µM
- GI50 [2]: 7.2 µM
- TGI [2]: 32.5 µM
- GI50 [42]: 15.1 µM
- TGI [42]: 29.5 µM
- GI50 [43]: 11.1 µM
- TGI [43]: 23.4 µM
- GI50 [3]: < 10 nM
- TGI [3]: 20.2 µM
- GI50 [4]: 13.3 µM
- TGI [4]: 36.9 µM
- GI50 [5]: 4380 nM
- TGI [5]: 19.3 µM
- GI50 [6]: 3.59 µM
- TGI [6]: 16.4 µM
- GI50 [7]: 3.65 µM
- TGI [7]: 13.8 µM
- GI50 [8]: 11.3 µM
- TGI [8]: 48.2 µM
- GI50 [9]: 4.14 µM
- TGI [9]: 17 µM
- GI50 [10]: 10.4 µM
- TGI [10]: 30.7 µM
- GI50 [44]: 6.83 µM
- TGI [44]: 23.6 µM
- GI50 [11]: 15.1 µM
- TGI [11]: 35.5 µM
- GI50 [45]: 7.07 µM
- TGI [45]: 41.4 µM
- GI50 [12]: < 10 nM
- TGI [12]: 1150 nM
- GI50 [13]: 4.98 µM
- TGI [13]: 31.7 µM
- GI50 [46]: 3.33 µM
- TGI [46]: 15.8 µM
- GI50 [47]: < 10 nM
- GI50 [14]: 1240 nM
- TGI [14]: 2.83 µM
- GI50 [48]: 5.61 µM
- TGI [48]: 19.2 µM
- GI50 [15]: 5.55 µM
- TGI [15]: 26.4 µM
- GI50 [16]: 7.47 µM
- TGI [16]: 21.8 µM
- GI50 [17]: 2320 nM
- TGI [17]: 4.7 µM
- GI50 [49]: 66.9 nM
- TGI [49]: 14 µM
- GI50 [18]: 11.9 µM
- TGI [18]: 25.2 µM
- GI50 [19]: 6.66 µM
- TGI [19]: 19.2 µM
- GI50 [20]: 20.2 µM
- TGI [20]: 43.5 µM
- GI50 [21]: 14.4 µM
- TGI [21]: 33.8 µM
- GI50 [22]: 7.99 µM
- TGI [22]: 35.8 µM
- GI50 [23]: 6.67 µM
- TGI [23]: 19.9 µM
- GI50 [24]: 4.05 µM
- TGI [24]: 11.2 µM
- GI50 [25]: 10.5 µM
- TGI [25]: 22.4 µM
- GI50 [50]: 10.1 µM
- TGI [50]: 35.9 µM
- GI50 [26]: 5.62 µM
- TGI [26]: 17.1 µM
- GI50 [27]: 8.06 µM
- TGI [27]: 20.1 µM
- GI50 [28]: > 100 µM
- TGI [28]: > 100 µM
- GI50 [29]: 5.59 µM
- TGI [29]: 18.5 µM
- GI50 [30]: 4.71 µM
- TGI [30]: 17.5 µM
- GI50 [31]: 14.2 µM
- TGI [31]: 35.7 µM
- GI50 [32]: 12.1 µM
- TGI [32]: 26.3 µM
- GI50 [51]: 2040 nM
- TGI [51]: 23.6 µM
- GI50 [33]: 8.79 µM
- TGI [33]: 34 µM
- GI50 [34]: 11.9 µM
- TGI [34]: 38.4 µM
- GI50 [35]: < 10 nM
- GI50 [52]: 3.95 µM
- TGI [52]: 17.8 µM
- GI50 [53]: 8.01 µM
- TGI [53]: 30.7 µM
- GI50 [36]: 11.2 µM
- TGI [36]: 37.8 µM
- GI50 [37]: 325 nM
- TGI [37]: 13.7 µM
- GI50 [54]: 27.1 µM
- TGI [54]: > 100 µM
- GI50 [38]: 11.6 µM
- TGI [38]: 25.5 µM
- GI50 [39]: 20.2 µM
- TGI [39]: 46 µM
- GI50 [55]: 12.6 µM
- TGI [55]: 25.5 µM
- GI50 [40]: 12.2 µM
- TGI [40]: 26.5 µM
- GI50 [56]: 18.7 nM
- TGI [56]: 21.5 µM
- GI50 [57]: < 10 nM
- TGI [57]: 602 nM
- GI50 [41]: 3.82 µM
- TGI [41]: 17.2 µM
